Results from patent publication US10294202B2, “Pyrrolidinones as herbicides” (FMC Corporation, priority 2013, dated 2019).

Legend:
giant foxtail = assay: Test A pre-/postemergence herbicide test; type: in vivo, Setaria faberii; details: 1000 g ai/ha
Summary of the method: (§1)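 Visual injury ratings, 0 = no effect, 100 = complete control, taken ~10 days after treatment against untreated greenhouse controls. Preemergence: directed soil spray onto seeded loam/sand pots. Postemergence: spray onto plants at one- to two-leaf stage, 2–10 cm tall.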

sedge, umbrella = assay: Test C flooded paddy test; type: in vivo, Cyperus difformis; details: Flood
Summary of the method: (§2)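 Plants grown to the 2-leaf stage; pots flooded to 3 cm above soil and compound applied directly into the paddy water, depth kept throughout. Greenhouse 13 to 15 days, then visual rating vs untreated controls on 0–100 scale (0 no effect, 100 complete control); dash means no result.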

pigweed = assay: Test A pre-/postemergence herbicide test; type: in vivo, Amaranthus retroflexus; details: 1000 g ai/ha
Summary of the method: as §1

velvetleaf = assay: Test A pre-/postemergence herbicide test; type: in vivo, Abutilon theophrasti; details: 1000 g ai/ha
Summary of the method: as §1

rice = assay: Test C flooded paddy test; type: in vivo, Oryza sativa; details: Flood
Text: (§3) Plant species in the flooded paddy test consisted of rice (Oryza sativa), sedge, umbrella (small-flower umbrella sedge, Cyperus difformis), ducksalad (Heteranthera limosa), and barnyardgrass (Echinochloa crus-galli) grown to the 2-leaf stage for testing. At time of treatment, test pots were flooded to 3 cm above the soil surface, treated by application of test compounds directly to the paddy water, and then maintained at that water depth for the duration of the test. Treated plants and controls were maintained in a greenhouse for 13 to 15 days, after which time all species were compared to controls and visually evaluated. Plant response ratings, summarized in Table C, are based on a scale of 0 to 100 where 0 is no effect and 100 is complete control. A dash (-) response means no test result.

ducksalad = assay: Test C flooded paddy test; type: in vivo, Heteranthera limosa; details: Flood
Summary of the method: as §2

barnyardgrass [1] = assay: Test C flooded paddy test; type: in vivo, Echinochloa crus-galli; details: Flood
Text: as §3

corn = assay: Test A pre-/postemergence herbicide test; type: in vivo, Zea mays; details: 1000 g ai/ha
Summary of the method: as §1

crabgrass, large = assay: Test A pre-/postemergence herbicide test; type: in vivo, Digitaria sanguinalis; details: 1000 g ai/ha
Summary of the method: as §1

barnyardgrass [2] = assay: Test A pre-/postemergence herbicide test; type: in vivo, Echinochloa crus-galli; details: 1000 g ai/ha
Summary of the method: as §1

morningglory = assay: Test A pre-/postemergence herbicide test; type: in vivo, Ipomoea spp.; details: 1000 g ai/ha
Summary of the method: as §1

wheat = assay: Test A pre-/postemergence herbicide test; type: in vivo, Triticum aestivum; details: 1000 g ai/ha
Summary of the method: as §1

[3] = Postemergence, 0 to 100 scale (0 no effect, 100 complete control)
[4] = Preemergence, visual rating on 0 to 100 scale (0 no effect, 100 complete control), approx. 10 days
[5] = 31 g ai/ha, scale of 0 to 100 where 0 is no effect and 100 is complete control, 13 to 15 days
[6] = 62 g ai/ha, scale of 0 to 100 where 0 is no effect and 100 is complete control, 13 to 15 days
[7] = 125 g ai/ha, scale of 0 to 100 where 0 is no effect and 100 is complete control, 13 to 15 days

| SMILES | Plant response rating, Foxtail, Giant (giant foxtail; [3]) | Plant response rating, Foxtail, Giant (giant foxtail; [4]) | Plant response rating, Sedge, Umbrella (sedge, umbrella; [6]) | Plant response rating, Sedge, Umbrella (sedge, umbrella; 250 g ai/ha, scale 0 to 100) | Plant response rating, Pigweed (pigweed; [4]) | Plant response rating, Velvetleaf (velvetleaf; [3]) | Plant response rating, Velvetleaf (velvetleaf; [4]) | Plant response rating, Rice (rice; [6]) | Plant response rating, Rice (rice; 250 g ai/ha, scale 0 to 100) | Plant response rating, Ducksalad (ducksalad; [6]) | Plant response rating, Ducksalad (ducksalad; 250 g ai/ha, scale 0 to 100) | Plant response rating, Barnyardgrass (barnyardgrass [1]; [6]) | Plant response rating, Barnyardgrass (barnyardgrass [1]; 250 g ai/ha, scale 0 to 100) | Plant response rating, Corn (corn; [3]) | Plant response rating, Corn (corn; [4]) | Plant response rating, Crabgrass, Large (crabgrass, large; [3]) | Plant response rating, Crabgrass, Large (crabgrass, large; [4]) | Plant response rating, Barnyardgrass (barnyardgrass [2]; [3]) | Plant response rating, Barnyardgrass (barnyardgrass [2]; [4]) | Plant response rating, Morningglory (morningglory; [3]) | other results |
| --- | --- | --- | --- | --- | --- | --- | --- | --- | --- | --- | --- | --- | --- | --- | --- | --- | --- | --- | --- | --- | --- |
| CS(=O)(=O)c1ccccc1NC(=O)C1C(=O)NCC1c1ccc(F)c(F)c1 (racemic) [Compound 21] | 80 | 90 | 0 | 0 | 40 | 60 | 50 | 0 | 0 | 0 | 85 | 0 | 0 | 0 | 0 | 80 | 90 | 90 | 90 | 0 | Plant response rating, Sedge, Umbrella (sedge, umbrella; [5]): 0; Plant response rating, Sedge, Umbrella (sedge, umbrella; [7]): 0; Plant response rating, Rice (rice; [5]): 0; Plant response rating, Rice (rice; [7]): 0; Plant response rating, Ducksalad (ducksalad; [5]): 0; Plant response rating, Ducksalad (ducksalad; [7]): 50; Plant response rating, Barnyardgrass (barnyardgrass [1]; [5]): 0; Plant response rating, Barnyardgrass (barnyardgrass [1]; [7]): 0; Plant response rating, Morningglory (morningglory; [4]): 40; Plant response rating, Wheat (wheat; [3]): 30; Plant response rating, Wheat (wheat; [4]): 20 |
| O=C1NCC(c2ccc(Cl)c(Cl)c2)C1C(=O)Nc1cccc(F)c1F (racemic) [Compound 25] | 90 | 90 | 0 | 0 | 0 | 10 | 0 | 0 | 0 | 0 | 60 | 0 | 0 | 0 | 0 | 80 | 90 | 80 | 80 | 10 | Plant response rating, Pigweed (pigweed; [3]): 0; Plant response rating, Morningglory (morningglory; [4]): 0; Plant response rating, Wheat (wheat; [3]): 0; Plant response rating, Wheat (wheat; [4]): 0 |
